Experiments:
[1] = target: Casein kinase I isoform gamma-3 (Homo sapiens) (UniProt Q9Y6M4); details: Compound concentration 1000.0 nM
[2] = target: T1, Muscarinic acetylcholine receptor M4 (Homo sapiens) (UniProt P08173); assay: M4 (h) CEREP ligand profiling; details: Compound concentration 10.0 uM
T1 sequence (whole entry): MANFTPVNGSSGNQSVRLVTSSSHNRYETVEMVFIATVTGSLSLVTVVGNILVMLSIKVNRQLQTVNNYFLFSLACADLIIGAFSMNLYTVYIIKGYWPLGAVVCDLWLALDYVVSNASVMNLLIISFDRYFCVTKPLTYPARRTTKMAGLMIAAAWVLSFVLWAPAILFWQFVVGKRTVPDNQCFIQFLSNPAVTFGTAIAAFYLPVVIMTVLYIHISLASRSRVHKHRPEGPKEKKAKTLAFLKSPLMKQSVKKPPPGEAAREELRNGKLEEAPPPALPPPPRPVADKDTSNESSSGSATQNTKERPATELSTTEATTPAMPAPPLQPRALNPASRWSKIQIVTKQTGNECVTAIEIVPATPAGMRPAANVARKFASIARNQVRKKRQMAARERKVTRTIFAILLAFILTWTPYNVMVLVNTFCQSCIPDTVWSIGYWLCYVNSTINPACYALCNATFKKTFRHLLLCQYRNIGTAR

[3] = target: D(2) dopamine receptor (Homo sapiens) (UniProt P14416); assay: D2S (h) CEREP ligand profiling; details: Compound concentration 10.0 uM
[4] = target: Tumor necrosis factor (Homo sapiens) (UniProt P01375); assay: TNF-alpha (h) CEREP ligand profiling; details: Compound concentration 10.0 uM
[5] = GABA CEREP ligand profiling; details: Compound concentration 10.0 uM
[6] = target: Platelet-derived growth factor receptor (Homo sapiens) (UniProt P09619+P16234); assay: PDGF CEREP ligand profiling; format: protein-complex assay; details: Compound concentration 10.0 uM
[7] = target: Adenosine receptor A3 (Homo sapiens) (UniProt P0DMS8); assay: A3 CEREP ligand profiling; details: Compound concentration 10.0 uM
[8] = target: Histamine H1 receptor (Homo sapiens) (UniProt P35367); assay: H1 (h) CEREP ligand profiling; details: Compound concentration 10.0 uM
[9] = target: 5-hydroxytryptamine receptor 6 (Homo sapiens) (UniProt P50406); assay: 5-HT6 (h) CEREP ligand profiling; details: Compound concentration 10.0 uM
[10] = target: Nociceptin receptor (Homo sapiens) (UniProt P41146); assay: ORL1 (h) (NOP) CEREP ligand profiling; details: Compound concentration 10.0 uM
[11] = target: Type-2 angiotensin II receptor (Homo sapiens) (UniProt P50052); assay: AT2 (h) CEREP ligand profiling; details: Compound concentration 10.0 uM
[12] = target: P2X receptor (Rattus norvegicus) (UniProt P51579+P49653+P51578+Q64663+P47824+P51577+P49654); assay: P2X CEREP ligand profiling; format: protein assay; details: Compound concentration 10.0 uM
[13] = target: Mu-type opioid receptor (Homo sapiens) (UniProt P35372); assay: mu (h) (MOP) CEREP ligand profiling; details: Compound concentration 10.0 uM
[14] = target: Cholecystokinin receptor type A (Homo sapiens) (UniProt P32238); assay: CCKA (h) CEREP ligand profiling; details: Compound concentration 10.0 uM
[15] = target: C-C chemokine receptor type 1 (Homo sapiens) (UniProt P32246); assay: CCR1 (h) CEREP ligand profiling; details: Compound concentration 10.0 uM
[16] = target: Adrenergic receptor alpha-1 (Homo sapiens) (UniProt P35348+P25100+P35368); assay: alpha1 CEREP ligand profiling; format: protein assay; details: Compound concentration 10.0 uM
[17] = target: Thromboxane A2 receptor (Homo sapiens) (UniProt P21731); assay: TXA2/PGH2 CEREP ligand profiling; details: Compound concentration 10.0 uM
[18] = target: Vasopressin V1a receptor (Homo sapiens) (UniProt P37288); assay: V1a (h) CEREP ligand profiling; details: Compound concentration 10.0 uM
[19] = target: T2, 5-hydroxytryptamine receptor 2C (Homo sapiens) (UniProt P28335); assay: 5-HT2C (h) CEREP ligand profiling; details: Compound concentration 10.0 uM
T2 sequence (whole entry): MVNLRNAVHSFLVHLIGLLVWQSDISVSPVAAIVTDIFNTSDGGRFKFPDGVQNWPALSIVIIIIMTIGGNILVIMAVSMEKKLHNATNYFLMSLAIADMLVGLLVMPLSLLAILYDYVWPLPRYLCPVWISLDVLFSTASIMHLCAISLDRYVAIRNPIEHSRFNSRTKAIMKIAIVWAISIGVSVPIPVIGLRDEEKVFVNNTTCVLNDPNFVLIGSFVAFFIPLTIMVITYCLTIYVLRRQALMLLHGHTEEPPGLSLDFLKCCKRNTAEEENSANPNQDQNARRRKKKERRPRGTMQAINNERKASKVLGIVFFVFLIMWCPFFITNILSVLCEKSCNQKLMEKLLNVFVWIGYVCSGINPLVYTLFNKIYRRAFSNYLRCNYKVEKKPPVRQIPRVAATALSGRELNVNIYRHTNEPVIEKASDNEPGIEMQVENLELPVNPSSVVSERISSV

[20] = target: Bombesin receptor (Homo sapiens) (UniProt P28336+P32247+P30550); assay: BB (non-select) CEREP ligand profiling; format: protein assay; details: Compound concentration 10.0 uM
[21] = target: D(1B) dopamine receptor (Homo sapiens) (UniProt P21918); assay: D5 (h) CEREP ligand profiling; details: Compound concentration 10.0 uM
[22] = target: T3, Muscarinic acetylcholine receptor M2 (Homo sapiens) (UniProt P08172); assay: M2 (h) CEREP ligand profiling; details: Compound concentration 10.0 uM
T3 sequence (whole entry): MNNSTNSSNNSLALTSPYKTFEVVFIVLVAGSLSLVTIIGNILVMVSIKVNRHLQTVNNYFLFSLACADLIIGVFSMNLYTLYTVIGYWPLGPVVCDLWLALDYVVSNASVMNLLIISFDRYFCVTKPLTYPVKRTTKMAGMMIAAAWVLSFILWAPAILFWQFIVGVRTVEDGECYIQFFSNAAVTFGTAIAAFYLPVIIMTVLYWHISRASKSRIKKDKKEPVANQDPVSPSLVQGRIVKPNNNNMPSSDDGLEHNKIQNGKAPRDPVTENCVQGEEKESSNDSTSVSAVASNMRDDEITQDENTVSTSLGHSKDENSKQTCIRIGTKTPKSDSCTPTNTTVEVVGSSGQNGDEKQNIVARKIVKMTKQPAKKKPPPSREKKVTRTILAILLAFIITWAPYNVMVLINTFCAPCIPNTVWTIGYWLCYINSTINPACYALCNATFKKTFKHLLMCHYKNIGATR

[23] = target: Type-1 angiotensin II receptor (Homo sapiens) (UniProt P30556); assay: AT1 (h) CEREP ligand profiling; details: Compound concentration 10.0 uM
[24] = target: GABA-A receptor; anion channel (Homo sapiens) (UniProt P14867+P47870+P18507+P28472+P48169+Q99928+Q9UN88+P34903+O00591+O14764+Q8N1C3+P18505+P78334+P47869+P31644+Q16445); assay: Cl- channel CEREP ligand profiling; format: protein-complex assay; details: Compound concentration 10.0 uM
[25] = target: Sodium-dependent noradrenaline transporter (Homo sapiens) (UniProt P23975); assay: NE transporter CEREP ligand profiling; details: Compound concentration 10.0 uM

Sequence of Bombesin receptor (Homo sapiens) (P28336 whole entry, looked up): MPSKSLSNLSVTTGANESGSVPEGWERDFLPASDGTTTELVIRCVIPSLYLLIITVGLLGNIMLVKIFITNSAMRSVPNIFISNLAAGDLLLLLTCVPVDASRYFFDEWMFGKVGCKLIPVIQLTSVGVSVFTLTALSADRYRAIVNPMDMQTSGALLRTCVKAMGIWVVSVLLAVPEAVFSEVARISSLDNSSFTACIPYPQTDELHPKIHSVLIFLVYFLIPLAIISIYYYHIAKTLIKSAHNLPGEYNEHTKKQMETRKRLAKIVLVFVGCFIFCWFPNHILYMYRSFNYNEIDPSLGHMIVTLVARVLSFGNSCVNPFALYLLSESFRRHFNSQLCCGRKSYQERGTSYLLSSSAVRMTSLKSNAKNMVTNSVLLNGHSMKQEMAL
Sequence of Bombesin receptor (Homo sapiens) (P30550 whole entry, looked up): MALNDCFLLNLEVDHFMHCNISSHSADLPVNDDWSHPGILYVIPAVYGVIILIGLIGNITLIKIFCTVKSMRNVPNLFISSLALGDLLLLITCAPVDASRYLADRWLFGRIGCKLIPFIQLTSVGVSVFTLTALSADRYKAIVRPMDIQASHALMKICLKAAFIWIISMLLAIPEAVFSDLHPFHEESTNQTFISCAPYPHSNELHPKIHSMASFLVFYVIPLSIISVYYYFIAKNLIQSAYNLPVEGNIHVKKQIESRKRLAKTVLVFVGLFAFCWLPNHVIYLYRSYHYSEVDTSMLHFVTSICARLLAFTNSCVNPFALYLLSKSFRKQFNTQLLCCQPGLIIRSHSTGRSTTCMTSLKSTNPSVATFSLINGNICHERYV
Sequence of Bombesin receptor (Homo sapiens) (P32247 whole entry, looked up): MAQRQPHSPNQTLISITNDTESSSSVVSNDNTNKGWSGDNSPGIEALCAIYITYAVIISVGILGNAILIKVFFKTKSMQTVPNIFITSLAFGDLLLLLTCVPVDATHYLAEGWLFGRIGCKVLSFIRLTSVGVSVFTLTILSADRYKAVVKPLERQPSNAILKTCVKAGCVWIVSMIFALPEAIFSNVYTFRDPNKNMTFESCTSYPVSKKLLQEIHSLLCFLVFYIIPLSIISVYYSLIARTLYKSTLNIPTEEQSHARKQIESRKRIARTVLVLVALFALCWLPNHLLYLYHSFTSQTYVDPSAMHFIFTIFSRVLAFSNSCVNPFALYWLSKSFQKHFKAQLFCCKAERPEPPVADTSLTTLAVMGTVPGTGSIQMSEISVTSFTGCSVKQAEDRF
Sequence of Vasopressin V1a receptor (Homo sapiens) (P37288 whole entry, looked up): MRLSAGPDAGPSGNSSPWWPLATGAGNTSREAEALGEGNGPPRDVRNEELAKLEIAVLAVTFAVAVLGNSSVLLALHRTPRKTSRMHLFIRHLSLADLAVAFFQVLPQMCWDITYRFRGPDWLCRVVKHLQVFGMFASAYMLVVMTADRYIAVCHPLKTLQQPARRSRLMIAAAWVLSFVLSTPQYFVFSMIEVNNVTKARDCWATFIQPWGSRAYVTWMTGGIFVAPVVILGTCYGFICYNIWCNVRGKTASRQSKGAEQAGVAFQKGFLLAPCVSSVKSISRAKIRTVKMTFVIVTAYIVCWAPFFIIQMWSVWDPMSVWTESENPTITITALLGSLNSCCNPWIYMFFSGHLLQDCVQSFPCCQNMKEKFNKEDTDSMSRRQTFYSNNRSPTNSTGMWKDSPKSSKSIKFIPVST
Sequence of D(2) dopamine receptor (Homo sapiens) (P14416 whole entry): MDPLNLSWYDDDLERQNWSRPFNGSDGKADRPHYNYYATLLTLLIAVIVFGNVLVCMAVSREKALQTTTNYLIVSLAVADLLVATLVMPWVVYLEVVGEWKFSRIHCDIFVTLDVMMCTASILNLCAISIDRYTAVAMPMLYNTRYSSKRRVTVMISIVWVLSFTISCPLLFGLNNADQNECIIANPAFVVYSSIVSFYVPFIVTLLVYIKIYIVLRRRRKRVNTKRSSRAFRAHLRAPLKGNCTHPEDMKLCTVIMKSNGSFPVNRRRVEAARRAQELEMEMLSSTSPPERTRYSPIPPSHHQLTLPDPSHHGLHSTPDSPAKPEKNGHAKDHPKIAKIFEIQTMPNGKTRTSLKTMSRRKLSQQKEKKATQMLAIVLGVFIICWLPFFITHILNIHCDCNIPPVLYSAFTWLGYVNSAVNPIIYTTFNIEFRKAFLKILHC
Sequence of Nociceptin receptor (Homo sapiens) (P41146 whole entry): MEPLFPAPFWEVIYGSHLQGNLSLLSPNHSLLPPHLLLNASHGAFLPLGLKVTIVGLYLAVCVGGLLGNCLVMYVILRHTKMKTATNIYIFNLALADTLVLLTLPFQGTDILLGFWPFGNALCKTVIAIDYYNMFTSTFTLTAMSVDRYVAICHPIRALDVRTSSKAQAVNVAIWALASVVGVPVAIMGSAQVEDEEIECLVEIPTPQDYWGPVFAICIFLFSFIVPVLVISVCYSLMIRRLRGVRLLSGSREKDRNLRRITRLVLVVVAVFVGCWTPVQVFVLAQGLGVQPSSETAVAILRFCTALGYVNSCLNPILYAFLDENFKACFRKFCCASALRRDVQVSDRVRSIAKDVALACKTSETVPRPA
Sequence of Histamine H1 receptor (Homo sapiens) (P35367 whole entry): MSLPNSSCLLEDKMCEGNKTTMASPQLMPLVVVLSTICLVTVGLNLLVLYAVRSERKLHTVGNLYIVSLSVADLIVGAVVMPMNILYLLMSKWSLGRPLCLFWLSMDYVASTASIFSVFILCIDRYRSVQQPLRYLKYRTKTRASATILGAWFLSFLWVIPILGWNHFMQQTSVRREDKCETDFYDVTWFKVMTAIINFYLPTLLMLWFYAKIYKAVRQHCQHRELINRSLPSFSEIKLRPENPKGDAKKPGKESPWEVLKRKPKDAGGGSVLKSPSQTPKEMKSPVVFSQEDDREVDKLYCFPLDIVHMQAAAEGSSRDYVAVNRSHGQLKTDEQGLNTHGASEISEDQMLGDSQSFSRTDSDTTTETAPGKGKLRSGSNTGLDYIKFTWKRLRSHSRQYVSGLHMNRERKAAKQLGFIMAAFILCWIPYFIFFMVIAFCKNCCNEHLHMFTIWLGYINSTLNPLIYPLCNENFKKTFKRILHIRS
Sequence of D(1B) dopamine receptor (Homo sapiens) (P21918 whole entry): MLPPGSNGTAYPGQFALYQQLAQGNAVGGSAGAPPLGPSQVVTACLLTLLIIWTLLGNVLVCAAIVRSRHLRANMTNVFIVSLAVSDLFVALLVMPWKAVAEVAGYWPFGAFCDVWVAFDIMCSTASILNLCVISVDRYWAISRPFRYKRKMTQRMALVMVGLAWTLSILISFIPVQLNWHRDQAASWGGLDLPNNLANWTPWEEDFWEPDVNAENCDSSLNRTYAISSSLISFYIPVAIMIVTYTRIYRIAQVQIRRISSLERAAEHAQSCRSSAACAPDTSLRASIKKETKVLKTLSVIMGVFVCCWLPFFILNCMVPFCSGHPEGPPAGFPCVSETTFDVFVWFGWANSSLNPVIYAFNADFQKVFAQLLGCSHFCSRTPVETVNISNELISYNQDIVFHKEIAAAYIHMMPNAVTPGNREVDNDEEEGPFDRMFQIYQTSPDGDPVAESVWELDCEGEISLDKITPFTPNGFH
Sequence of Mu-type opioid receptor (Homo sapiens) (P35372 whole entry): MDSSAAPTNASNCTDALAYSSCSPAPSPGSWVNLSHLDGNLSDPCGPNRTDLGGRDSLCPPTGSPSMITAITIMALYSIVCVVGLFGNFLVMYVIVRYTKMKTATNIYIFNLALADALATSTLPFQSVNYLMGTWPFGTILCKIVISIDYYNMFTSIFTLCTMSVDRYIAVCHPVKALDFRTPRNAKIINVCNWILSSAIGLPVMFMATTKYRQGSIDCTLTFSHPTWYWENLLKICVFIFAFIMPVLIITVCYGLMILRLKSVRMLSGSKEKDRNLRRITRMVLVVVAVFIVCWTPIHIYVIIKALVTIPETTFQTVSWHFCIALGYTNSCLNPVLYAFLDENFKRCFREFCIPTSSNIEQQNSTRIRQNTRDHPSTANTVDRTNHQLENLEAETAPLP
Sequence of Cholecystokinin receptor type A (Homo sapiens) (P32238 whole entry): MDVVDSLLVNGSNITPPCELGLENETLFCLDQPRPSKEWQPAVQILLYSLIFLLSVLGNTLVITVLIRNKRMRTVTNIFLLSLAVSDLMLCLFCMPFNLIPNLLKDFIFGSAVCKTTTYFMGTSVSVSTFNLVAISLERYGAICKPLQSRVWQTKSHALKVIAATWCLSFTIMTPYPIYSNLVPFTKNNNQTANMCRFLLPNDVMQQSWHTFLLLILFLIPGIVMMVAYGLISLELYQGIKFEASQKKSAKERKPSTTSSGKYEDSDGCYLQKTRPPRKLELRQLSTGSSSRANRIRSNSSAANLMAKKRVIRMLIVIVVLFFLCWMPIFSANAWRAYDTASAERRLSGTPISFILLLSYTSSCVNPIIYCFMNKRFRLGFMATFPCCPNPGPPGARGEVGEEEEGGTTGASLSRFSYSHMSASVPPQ
Sequence of C-C chemokine receptor type 1 (Homo sapiens) (P32246 whole entry): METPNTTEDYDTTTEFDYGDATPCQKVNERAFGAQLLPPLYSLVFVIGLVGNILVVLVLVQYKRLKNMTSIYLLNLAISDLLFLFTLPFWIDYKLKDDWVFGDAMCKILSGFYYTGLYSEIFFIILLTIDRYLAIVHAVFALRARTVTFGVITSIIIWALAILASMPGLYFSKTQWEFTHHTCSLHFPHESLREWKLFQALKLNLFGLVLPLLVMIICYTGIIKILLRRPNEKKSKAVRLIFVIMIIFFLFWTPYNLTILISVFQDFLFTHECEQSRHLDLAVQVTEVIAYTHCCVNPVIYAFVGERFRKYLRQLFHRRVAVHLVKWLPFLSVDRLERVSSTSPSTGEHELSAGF
Sequence of Thromboxane A2 receptor (Homo sapiens) (P21731 whole entry): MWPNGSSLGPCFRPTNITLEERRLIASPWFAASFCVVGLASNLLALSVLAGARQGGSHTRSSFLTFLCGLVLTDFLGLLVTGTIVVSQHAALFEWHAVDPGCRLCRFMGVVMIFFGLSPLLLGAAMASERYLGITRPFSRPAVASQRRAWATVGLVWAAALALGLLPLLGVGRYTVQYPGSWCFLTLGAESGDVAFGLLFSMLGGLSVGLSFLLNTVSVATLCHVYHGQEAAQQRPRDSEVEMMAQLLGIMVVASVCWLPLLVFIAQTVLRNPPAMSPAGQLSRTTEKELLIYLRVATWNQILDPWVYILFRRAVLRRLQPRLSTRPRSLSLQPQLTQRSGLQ

CCC(=N\O)/C(C)=C/c1ccc(F)c(C)c1 [A-226]
inactive: residual activity [1] 100%

CCC(=N\O)/C(C)=C/c1ccc(F)cc1 [A-079]
inactive: inhibition [2] 5% | inhibition [3] 4% | inhibition [4] 1% | inhibition [5] -3% | inhibition [6] -6% | inhibition [7] 27% | inhibition [8] 4% | inhibition [9] 0% | inhibition [10] -5% | inhibition [11] -9% | inhibition [12] -2% | inhibition [13] 12% | inhibition [14] 29% | inhibition [15] 1% | inhibition [16] 6% | inhibition [17] 6% | inhibition [18] -3% | inhibition [19] 6% | inhibition [20] -3% | inhibition [21] -8% | inhibition [22] 13% | inhibition [23] -1% | inhibition [24] 26% | inhibition [25] 32%
